Data taken from ChEMBL document CHEMBL6153032, “Discovery of a highly potent, N-terminal domain-targeting degrader of AR-FL/AR-V7 for the treatment of prostate cancer” (Eur J Med Chem, 2025).
The source made the active and inactive calls. The rule behind the calls is not given here.

Assays:
[1] = test system: CWR22R; test: Induction of apoptosis in human 22Rv1 cells assessed as necrotic cells at 100 nM incubated for 48 hrs by Annexin V/FITC staining based flow cytometry analysis (reference value: 2.31 %); type: functional
[2] = biological target: T1, Protein cereblon/Androgen receptor (Homo sapiens, UniProt P10275+Q96SW2); test: PROTAC activity at full length Androgen receptor/CRBN in human 22Rv1 cells assessed as induction of full length androgen receptor degradation at 100 nM incubated for 12 hrs in presence of MLN4924 by Western blot analysis; type: cell-based
Target sequence in this assay (P10275 whole entry, looked up): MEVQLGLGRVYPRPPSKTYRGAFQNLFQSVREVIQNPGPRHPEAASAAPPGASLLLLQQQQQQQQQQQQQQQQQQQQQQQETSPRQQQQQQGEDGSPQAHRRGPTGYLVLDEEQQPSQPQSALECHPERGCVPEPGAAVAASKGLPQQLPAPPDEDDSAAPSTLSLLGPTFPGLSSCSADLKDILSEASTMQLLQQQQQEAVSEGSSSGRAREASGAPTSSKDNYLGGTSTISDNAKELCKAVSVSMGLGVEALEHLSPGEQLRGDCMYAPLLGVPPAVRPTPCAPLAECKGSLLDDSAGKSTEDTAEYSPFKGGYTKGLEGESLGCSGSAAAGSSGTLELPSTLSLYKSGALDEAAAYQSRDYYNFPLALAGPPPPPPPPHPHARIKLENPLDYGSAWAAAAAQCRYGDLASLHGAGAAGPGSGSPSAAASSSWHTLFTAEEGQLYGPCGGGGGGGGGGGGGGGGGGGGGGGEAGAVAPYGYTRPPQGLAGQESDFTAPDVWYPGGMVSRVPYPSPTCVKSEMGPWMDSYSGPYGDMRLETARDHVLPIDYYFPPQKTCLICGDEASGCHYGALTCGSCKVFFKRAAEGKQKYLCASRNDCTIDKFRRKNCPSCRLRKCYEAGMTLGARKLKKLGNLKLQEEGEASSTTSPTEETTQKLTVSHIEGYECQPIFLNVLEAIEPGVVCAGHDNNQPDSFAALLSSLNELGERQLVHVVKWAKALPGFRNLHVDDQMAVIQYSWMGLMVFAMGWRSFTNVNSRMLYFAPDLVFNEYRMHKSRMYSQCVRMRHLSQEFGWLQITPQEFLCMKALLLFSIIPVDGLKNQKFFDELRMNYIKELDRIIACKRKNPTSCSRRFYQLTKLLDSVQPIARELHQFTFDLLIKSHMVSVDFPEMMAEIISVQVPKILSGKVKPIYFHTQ
Target sequence in this assay (Q96SW2 whole entry, looked up): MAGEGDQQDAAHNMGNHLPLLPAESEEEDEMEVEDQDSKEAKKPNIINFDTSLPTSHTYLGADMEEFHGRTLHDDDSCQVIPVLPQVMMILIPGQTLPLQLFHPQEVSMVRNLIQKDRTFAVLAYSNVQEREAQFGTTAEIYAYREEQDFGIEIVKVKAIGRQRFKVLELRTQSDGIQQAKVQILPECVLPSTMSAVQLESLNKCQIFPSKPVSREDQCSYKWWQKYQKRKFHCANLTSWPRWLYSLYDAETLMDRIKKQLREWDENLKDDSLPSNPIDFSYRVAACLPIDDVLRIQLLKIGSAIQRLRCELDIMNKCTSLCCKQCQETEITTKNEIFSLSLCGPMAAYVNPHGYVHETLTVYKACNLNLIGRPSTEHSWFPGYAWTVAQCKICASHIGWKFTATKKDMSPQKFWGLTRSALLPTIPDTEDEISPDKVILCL

[3] = Metabolic stability in mouse liver microsome assessed as half life measured upto 45 mins by LC/MS analysis; type: ADME; conditions: liver microsomes
[4] = test system: Protein cereblon/Androgen receptor (Homo sapiens), P10275+Q96SW2 [UNDEFINED MUTATION]; test: PROTAC activity at AR-V7/CRBN in human 22Rv1 cells assessed as reduction in AR-V7 level at 100 nM incubated for 24 hrs by immunofluorescence analysis; type: cell-based; conditions: CWR22R
[5] = test system: CWR22R; test: Downregulation of UBE2C mRNA level in human 22Rv1 cells incubated for 24 hrs by qRT-PCR analysis; type: functional, cell-based; conditions: dose 100-500 nM
[6] = biological target: Protein cereblon/Estrogen receptor (Homo sapiens) (UniProt P03372+Q96SW2); test: PROTAC activity at CRBN/ERalpha in human 22Rv1 cells assessed as reduction in ERalpha protein level at 0.01 to 5 uM measured after 24 hrs by Western blot analysis; type: cell-based; conditions: dose 0.01-5 µM
[7] = biological target: T1, Protein cereblon/Androgen receptor; test: PROTAC activity at full length Androgen receptor/CRBN in human 22Rv1 cells assessed as reduction in full length androgen receptor level at 1 uM by Western blot analysis; type: cell-based; conditions: time 6.0 hrs
Target sequence in this assay (P10275 whole entry, looked up): as the sequence (P10275 whole entry, looked up) above
Target sequence in this assay (Q96SW2 whole entry, looked up): as the sequence (Q96SW2 whole entry, looked up) above

[8] = test system: CWR22R; test: Induction of apoptosis in human 22Rv1 cells assessed as early apoptotic cells at 100 nM incubated for 48 hrs by Annexin V/FITC staining based flow cytometry analysis (reference value: 2.08 %); type: functional
[9] = test system: Protein cereblon/Androgen receptor (Homo sapiens), P10275+Q96SW2 [UNDEFINED MUTATION]; test: PROTAC activity at AR-V7/CRBN in human 22Rv1 cells assessed as induction of AR-V7 degradation at 1 uM incubated for 24 hrs by Western blot analysis relative to control; type: cell-based; conditions: CWR22R
[10] = Toxicity in BALB/c mouse assessed as liver damage at 10 mg/kg, iv administered once daily for 21 days by H and E staining based analysis; type: organism-based; conditions: in vivo, 504 h, time 21 day
[11] = Cmax in Sprague-Dawley rat 2 mg/kg, iv by LC-MS/MS analysis; type: ADME, organism-based; conditions: in vivo
[12] = test system: CWR22R; test: Induction of cell cycle arrest in human 22Rv1 cells assessed as accumulation of cells at G2/M phase at 500 nM incubated for 24 hrs by PI staining based flow cytometry analysis (reference value: 8.61%); type: functional
[13] = test system: LNCaP; test: Antiproliferative activity against human LNCaP cells assessed as cell viability incubated for 4 days by CCK-8 assay; type: functional, cell-based; conditions: 96 h
[14] = test system: Protein cereblon/Androgen receptor (Homo sapiens), P10275+Q96SW2 [UNDEFINED MUTATION]; test: PROTAC activity at AR-V7/CRBN in human 22Rv1 cells assessed as induction of AR-V7 degradation at 5 uM incubated for 24 hrs by Western blot analysis relative to control; type: cell-based; conditions: CWR22R
[15] = test system: CWR22R; test: Induction of cell cycle arrest in human 22Rv1 cells assessed as accumulation of cells at G2/M phase at 100 nM incubated for 24 hrs by PI staining based flow cytometry analysis (reference value: 8.61%); type: functional
[16] = Antiproliferative activity against human RWPE-1 cells assessed as cell viability incubated for 4 days by CCK-8 assay; type: toxicity, cell-based
[17] = AUC (0 to infinity) in Sprague-Dawley rat 2 mg/kg, iv by LC-MS/MS analysis; type: ADME, organism-based; conditions: in vivo
[18] = MRT (0 to t) in Sprague-Dawley rat 2 mg/kg, iv by LC-MS/MS analysis; type: ADME, organism-based; conditions: in vivo
[19] = biological target: T1, Protein cereblon/Androgen receptor; test: (§1) PROTAC activity at AR-V7/CRBN in human 22Rv1 cells assessed as reduction in AR-V7 level incubated for 24 hrs by Western blot analysis; type: cell-based; conditions: cwr22r
Target sequence in this assay (P10275 whole entry, looked up, stated change not applied): as the sequence (P10275 whole entry, looked up) above
Target sequence in this assay (Q96SW2 whole entry, looked up, stated change not applied): as the sequence (Q96SW2 whole entry, looked up) above

[20] = test system: Protein cereblon/Androgen receptor (Homo sapiens), P10275+Q96SW2 [UNDEFINED MUTATION]; test: as §1; type: cell-based; conditions: CWR22R, dose <= 5.0 µM
[21] = test system: Protein cereblon/Androgen receptor (Homo sapiens), P10275+Q96SW2 [UNDEFINED MUTATION]; test: PROTAC activity at AR-V7/CRBN in human 22Rv1 cells assessed as induction of AR-V7 degradation at 100 nM incubated for 12 hrs in presence of MG132 by Western blot analysis; type: cell-based; conditions: CWR22R
[22] = test system: CWR22R; test: Downregulation of KLK2 mRNA level in human 22Rv1 cells incubated for 24 hrs by qRT-PCR analysis; type: functional, cell-based; conditions: dose 100-500 nM
[23] = Metabolic stability in human liver microsome assessed as half life measured upto 45 mins by LC/MS analysis; type: ADME; conditions: liver microsomes
[24] = test system: Protein cereblon/Androgen receptor (Homo sapiens), P10275+Q96SW2 [UNDEFINED MUTATION]; test: PROTAC activity at AR-V7/CRBN in human 22Rv1 cells assessed as induction of AR-V7 degradation at 100 nM incubated for 12 hrs in presence of Thalidomide by Western blot analysis; type: cell-based; conditions: CWR22R
[25] = biological target: T1, Protein cereblon/Androgen receptor; test: PROTAC activity at full length Androgen receptor/CRBN in human 22Rv1 cells assessed as induction of full length Androgen receptor degradation at 0.1 uM incubated for 24 hrs in presence of CHX by Western blot analysis; type: cell-based
Target sequence in this assay (P10275 whole entry, looked up): as the sequence (P10275 whole entry, looked up) above
Target sequence in this assay (Q96SW2 whole entry, looked up): as the sequence (Q96SW2 whole entry, looked up) above

[26] = Toxicity in BALB/c mouse assessed as kidney damage at 10 mg/kg, iv administered once daily for 21 days by H and E staining based analysis; type: organism-based; conditions: in vivo, 504 h, time 21 day
[27] = Half life in Sprague-Dawley rat 2 mg/kg, iv by LC-MS/MS analysis; type: ADME, organism-based; conditions: in vivo
[28] = Volume of distribution at steady state in Sprague-Dawley rat 2 mg/kg, iv by LC-MS/MS analysis; type: ADME, organism-based; conditions: in vivo, read-out: Vdss
[29] = test system: CWR22R; test: Downregulation of PSA mRNA level in human 22Rv1 cells incubated for 24 hrs by qRT-PCR analysis; type: functional, cell-based; conditions: dose 100-500 nM
[30] = test system: Protein cereblon/Androgen receptor (Homo sapiens), P10275+Q96SW2 [UNDEFINED MUTATION]; test: PROTAC activity at AR-V7/CRBN in human 22Rv1 cells assessed as induction of AR-V7 degradation at 0.1 uM incubated for 24 hrs in presence of CHX by Western blot analysis; type: cell-based; conditions: CWR22R
[31] = Antiproliferative activity against human MCF-10A cells assessed as cell viability incubated for 4 days by CCK-8 assay; type: toxicity, cell-based
[32] = test system: CWR22R; test: Induction of cell cycle arrest in human 22Rv1 cells assessed as accumulation of cells at G0/G1 phase at 100 nM incubated for 24 hrs by PI staining based flow cytometry analysis (reference value: 62.66%); type: functional
[33] = test system: DU-145; test: Antiproliferative activity against human DU-145 cells assessed as cell viability incubated for 4 days by CCK-8 assay; type: functional, cell-based; conditions: DU-145, 96 h
[34] = test system: CWR22R; test: Antitumor activity against human 22Rv1 cells xenografted in BALB/c nude mouse assessed as redcution in tumor volume at 10 mg/kg, iv administered once daily for 21 days; type: functional, organism-based; conditions: time 21.0 day
[35] = biological target: T1, Protein cereblon/Androgen receptor; test: PROTAC activity at full length Androgen receptor/CRBN in human 22Rv1 cells assessed as reduction in full length androgen receptor level incubated for 24 hrs by Western blot analysis; type: cell-based
[36] = Metabolic stability in rat liver microsome assessed as intrinsic clearance measured upto 45 mins by LC/MS analysis; type: ADME; conditions: liver microsomes, read-out: CLH
[37] = test system: CWR22R; test: Antitumor activity against human 22Rv1 cells xenografted in BALB/c nude mouse assessed as suppression of tumor growth at 10 mg/kg, iv administered once daily for 21 days; type: functional, organism-based; conditions: time 21.0 day

Chain of Protein cereblon/Androgen receptor (Homo sapiens), P10275+Q96SW2 [UNDEFINED MUTATION] (P10275 whole entry, looked up, stated change not applied): as the sequence (P10275 whole entry, looked up) above
Chain of Protein cereblon/Androgen receptor (Homo sapiens), P10275+Q96SW2 [UNDEFINED MUTATION] (Q96SW2 whole entry, looked up, stated change not applied): as the sequence (Q96SW2 whole entry, looked up) above
Chain of Protein cereblon/Estrogen receptor (Homo sapiens) (P03372 whole entry, looked up): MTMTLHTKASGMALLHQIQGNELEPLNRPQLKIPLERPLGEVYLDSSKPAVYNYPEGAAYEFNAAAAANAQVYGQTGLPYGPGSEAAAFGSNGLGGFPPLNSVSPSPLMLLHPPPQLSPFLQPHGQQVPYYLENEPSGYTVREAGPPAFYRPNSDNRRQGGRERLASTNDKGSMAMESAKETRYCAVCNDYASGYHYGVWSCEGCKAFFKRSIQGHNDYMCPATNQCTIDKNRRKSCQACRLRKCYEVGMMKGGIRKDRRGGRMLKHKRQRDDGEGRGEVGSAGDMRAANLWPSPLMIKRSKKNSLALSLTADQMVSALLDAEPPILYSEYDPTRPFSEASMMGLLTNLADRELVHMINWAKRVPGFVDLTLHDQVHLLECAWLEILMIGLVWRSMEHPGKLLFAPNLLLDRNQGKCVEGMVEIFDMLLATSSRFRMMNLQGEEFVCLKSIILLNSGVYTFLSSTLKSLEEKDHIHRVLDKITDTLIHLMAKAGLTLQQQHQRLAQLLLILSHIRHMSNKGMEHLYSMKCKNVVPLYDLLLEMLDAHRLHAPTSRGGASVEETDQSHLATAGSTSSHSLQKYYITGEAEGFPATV
Chain of Protein cereblon/Estrogen receptor (Homo sapiens) (Q96SW2 whole entry, looked up): as the sequence (Q96SW2 whole entry, looked up) above

For `CC(C)(c1ccc(OCCNc2cccc3c2C(=O)N(C2CCC(=O)NC2=O)C3=O)cc1)c1ccc(OCc2cccc(N3CCOCC3)n2)cc1` (stereo not drawn), the Activity [1] was 2.13%, the Activity [2] was “Active” and the half-life [3] was 18.4 min. For the same compound, the Activity [4] was “Active”, the Activity [5] was “Dose-dependent-effect” and the Activity [6] was “Active”. The Activity [7] was “Time-dependent-effect”, the Activity [8] was 14.57% and the Activity [9] was 88.7%. For the same compound, the Activity [10] was “Non-toxic”, the Cmax [11] was 6440 ng/mL and the Activity [12] was 21.54%. The IC50 [13] was 176 nM, the Activity [14] was 89.6% and the Activity [15] was 15.45%. The IC50 at 4 days [16] was over 80000 nM, the AUC(0-inf) [17] was 2220 ng·h/mL and the MRT last [18] was 32.4 min. The DC50 [19] was 26 nM, the Activity [20] was “Dose-dependent-effect” and the Activity [21] was “Active”. The Activity [22] was “Dose-dependent-effect”, the half-life [23] was 37.2 min and the Activity [24] was “Active”. The Activity [25] was “Active”, the Activity [26] was “Non-toxic” and the half-life [27] was 158 min. The Vd [28] was 0.571 L/kg, the Activity [29] was “Dose-dependent-effect” and the Activity [30] was “Active”. For the same compound, the IC50 at 4 days [31] was over 80000 nM, the Activity [32] was 41.16% and the IC50 [33] was over 80000 nM. For the same compound, the Activity [34] was “Active”, the DC50 [35] was 180 nM and the Activity ([35]; dose <= 5.0 µM) was “Dose-dependent-effect”. The CLint scaled [36] was 40.8 mL/min/kg and the Activity [37] was “Active”.
